Measured values taken from patent US12440584B2, “Macrocyclic ligands with pendant chelating moieties and complexes thereof” (LUMIPHORE, INC., priority 2018, dated 2025).

Tests used:
Format in all cases: physicochemical
[1] = Photophysical characterization of Eu complexes (UV-vis, luminescence, quantum yield, lifetime); conditions: TBS buffer, pH 7.6
Description: The europium complexes of ligands 16, 29, 33, 40, and 43 were prepared by separately dissolving each ligand (2 mg) into methanol (200 μL). Excess europium chloride hexahydrate (˜5 equivalents) was dissolved in methanol (200 μL) and the full volume was added to each of the ligand solutions. The solvent was removed, and the residue was dissolved into DMF (50 μL). The europium complexes were then purified by semi-prep HPLC on an Agilent 1260 Infinity instrument using an Eclipse XDB-C18 column (5 μm, 9.4×250 mm). The mobile phase was 10 to 30% acetonitrile in water containing 0.1% trifluoroacetic acid. The volatiles were removed from the HPLC eluents under vacuum, and the residues were separately dissolved into methanol (500 μL) to give methanolic stock solutions of each europium complex with greater than 98% purity. A few drops of these methanolic solutions were evaporated to dryness, and then the residue was dissolved into TBS buffer at a concentration of ca. 3 μM to make aqueous stock solutions (20 mL) with an absorbance of 0.05 (1 cm path length) at 365 nm. […] Quinine sulfate dissolved in 0.05 M sulfuric acid was similarly diluted to a final absorbance of 0.05 at 365 nm, and this solution was similarly (1/6, 2/6, 3/6, 4/6, and 5/6) diluted to afford six quinine sulfate reference samples of evenly spaced concentration. […] By measuring the absorbance and luminescence of these dilute solutions, the quantum yields of the new Eu complexes were determined. A 5 cm path-length quartz cell was used to measure the absorbance of these dilute solutions in order to improve the UV-vis signal-to-noise. Steady state photoluminescence measurements were collected in a 1 cm fluorescence cuvette at 365 nm excitation wavelength, 1 nm resolution, 10 nm excitation slit width, 1 nm emission slit width, and 0.2 sec integration time on an instrument that has been described elsewhere (D'Aleo, A.; Moore, E. G.; Szigethy, G.; Xu, J.; Raymond, K. N. Inorg. Chem. 2009, 48, 9316·). […]

[2] = Luminescence titration of ligand 43 with europium chloride; conditions: 383 nm (ligand), 357 nm (complex)
Description: Titration of ligand 43 was also performed by luminescence (FIG. 5), monitoring the europium signal at 612 nm upon photoexcitation of the solution at 340 nm. The ligand solution used for the UV-vis titration of 43 mentioned above was first diluted 1:10 in TBS buffer. Similarly, the 1.299 mM stock europium solution was separately diluted 1:10 with water. […] The 32.99 μL equivalence point gives extinction coefficients of 14,400 M^−1 cm^−1 at 383 nm and 14,200 M^−1 cm^−1 at 357 nm for 43 and 43 Eu respectively. Averaging the values from both UV-vis and luminescence titration experiments of 43 yields extinction coefficients of 13,700 M^−1 cm^−1 at 383 nm and 13,500 M^−1 cm^−1 at 357 nm for 43 and 43 Eu respectively.

[3] = UV-vis titration with europium chloride for extinction coefficients
Description: In order to determine accurate extinction coefficients for 16 and 16·Eu, titration experiments using europium chloride as the titrant were performed. Europium chloride hexahydrate (13.22 mg, 0.03608 mmol) was dissolved into 5 mM citrate buffer (pH=4) using a 100 mL volumetric flask to give a 0.3608 mM europium chloride solution, which was then titrated into a 0.5 mL solution of 16 in TBS buffer (Tris-buffered saline, 50 mM Tris, 150 mM NaCl, pH=7.6) using 5 μL aliquots. The UV-vis spectra were adjusted for the increase in solvent volume due to each injection. The results of the UV-vis titration are plotted in FIG. 3.
The volume of europium chloride corresponds to 16.70 nmol of europium, meaning the starting concentration of ligand 16 was 33.40 μM. […] These absorbance and concentration values yield extinction coefficients of 13,600 M^−1 cm^−1 and 14,300 M^−1 cm^−1 for the ligand 16 and the complex 16·Eu respectively.
In order to determine accurate extinction coefficients for 43 and 43 Eu, titration experiments using europium chloride as the titrant were performed. Europium chloride hexahydrate (47.58 mg, 0.1299 mmol) was dissolved into 50 mM citrate buffer (pH=4) using a 10 mL volumetric flask to give a 12.99 mM europium chloride solution, which was then transferred to a 100 mL volumetric flask and diluted 1:10 with water. The resulting 1.299 mM europium chloride solution (in 5 mM citrate buffer) was then titrated into a 1 mL solution of 43 in TBS buffer using 5 μL aliquots. The UV-vis spectra were adjusted for the increase in solvent volume due to each injection. The results of the UV-vis titration are plotted in FIG. 4.
The volume of europium chloride corresponds to 47.46 nmol of europium, meaning the starting concentration of ligand 43 was 47.46 μM. […] These absorbance and concentration values yield extinction coefficients of 13,000 M^−1 cm^−1 and 12,800 M^−1 cm^−1 for the ligand and complex respectively.

ε260/ε at λmax [1]: 1.96 | ε280/ε at λmax [1]: 1.27 | λmax [1]: 383 nm | extinction coefficient, average of UV-vis and luminescence titrations [2]: 13,700 M^−1 cm^−1 | extinction coefficient ([2]; luminescence titration): 14,400 M^−1 cm^−1 | lambda max ([3]; UV-vis titration, TBS buffer): 383 nm | extinction coefficient ([3]; UV-vis titration, at lambda max): 13,000 M^−1 cm^−1 | ε at λmax ([3]; measured by europium titration, TBS buffer): 13,700 M^−1cm^−1
Compound: NCCOCCNC(=O)C1CCCN(C(=O)c2cccc(=O)n2O)CCCNC(=O)c2ccc(n(O)c2=O)C(=O)N[C@@H]2COC[C@@H]2NC(=O)c2ccc(c(=O)n2O)C(=O)NCCCN1C(=O)c1cccc(=O)n1O (some centres unmarked) [Compound 43]
